Experimental data: patent US10849838B2, “Biaromatic vitamin D analogs” (DSM IP ASSETS B.V., priority 2015, dated 2020)

Target: T1, human vitamin D receptor (VDR) (Homo sapiens, UniProt P11473)
T1 construct: expressed in transfected cells; host or cells: HEK293 cells (ATCC), transient transfection
T1 sequence (P11473 127-423 limits assumed): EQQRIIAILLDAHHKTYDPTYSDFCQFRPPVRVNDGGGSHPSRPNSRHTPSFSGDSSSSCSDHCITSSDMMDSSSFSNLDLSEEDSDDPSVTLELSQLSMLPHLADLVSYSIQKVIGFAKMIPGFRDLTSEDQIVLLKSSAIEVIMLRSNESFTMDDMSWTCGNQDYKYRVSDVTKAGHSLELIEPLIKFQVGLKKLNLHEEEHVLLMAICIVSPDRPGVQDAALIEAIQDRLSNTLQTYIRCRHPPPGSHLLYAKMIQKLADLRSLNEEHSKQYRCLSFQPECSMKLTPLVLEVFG
Assay: Human vitamin D receptor (VDR) agonist activity, GAL4-VDR LBD luciferase transactivation assay in transiently transfected HEK293 cells
Type: cell-based
Conditions: hybrid VDR-GAL4 receptor, pFR-Luc luciferase reporter, 16 h incubation, read-out: Effective concentrations of half maximal activation (EC50)
Text: By way of example, the human vitamin D receptor (VDR) agonist activity of the claimed compounds can be tested using a cell based transactivation assay in an eukaryotic cell line. After a co-transfection, using a reporter plasmid construct and a hybrid receptor construct containing the ligand-binding domain of the human VDR linked to the DNA-binding domain of the yeast transcription factor GAL4, the cultured cells were stimulated by the VDR agonists. The hybrid VDR-GAL4 receptor binds the VDR agonists and transactivates luciferase reporter expression through the GAL4-response elements in the promoter of the luciferase gene (reporter construct). The VDR agonist binding and transactivation is determined by measuring the luciferase luminescence activity. The effective concentration of half maximal activation (EC50) was determined for the VDR agonists by means of dose-response experiments. The details of the protocol method of this test according to the invention are described in the example section. […]

Row | EC50 [nM] | Structure (SMILES)
1 | 7 | CC/C(=C\C=C\C(O)(CC)CC)c1cccc(CCc2ccc(C(C)O)c(CO)c2)c1 (racemic) [I-a, (4E,6E)-3-ethyl-7-(3-(4-(1-hydroxyethyl)-3-(hydroxymethyl)phenethyl)phenyl)nona-4,6-dien-3-ol]
2 | 113 | CC/C(=C\C=C\C(O)(CC)CC)c1cccc(CCc2ccc(CO)c(C(C)O)c2)c1 (racemic) [Comp1]
